Test results from patent US20160376659A1, “Breast Cancer Biomarker” (The University of Manchester, priority 2015, published 2016).
Entries after “also recorded” stand apart in the source; their conditions may differ.

Experiments:
[1] = tested on: Early (HBC×34) and metastatic (BB3RC31) BC estrogen-dependent patient-derived xenograft tumors; test: 14 day in vivo window treatment of ER+ PDX tumors: tumor growth, Ki67, ER, PR; set-up: species or system mice; conditions: for proliferation marker Ki67 / tumor growth: 14 days, tamoxifen 10 mg/kg/day oral, fulvestrant 200 mg/kg/week s.c., RO4929097 3 mg/kg/day oral; for ER and PR protein expression levels: PDX tumors, 14 days in vivo, immunohistochemistry
Description: Early (HBC×34) and metastatic (BB3RC31) BC estrogen-dependent PDXs were administered with 8 ug/ml of 17-beta estradiol in drinking water at all times and were treated with drugs when tumors reached 200-300 mm^3. Experiments were performed using PDX tumors between passages 5 and 8. Animal weight and tumor size was measured bi-dimensionally using callipers twice a week. The HBC×34 model was kindly provided by Dr Elisabetta Marangoni from Institute Curie, Paris (Cottu et al., 2012).
Tamoxifen citrate (Sigma, T9262, 10 mg/kg/day) and RO4929097 (Cellagen Technology, 3 mg/kg/day) were administered by oral gavage (0.1 ml/dose) on a five day from seven basis (weekends excluded) for fourteen days. Tamoxifen citrate and RO4929097 were prepared in 1% carboxymethylcellulose (Sigma, C9481) dissolved in distilled water. Fulvestrant (kindly provided by Astrazeneca, 200 mg/kg/week) was administered by subcutaneous injection (0.1 ml/dose) on a weekly basis for fourteen days. The HBC×22 and HBC×34 tamoxifen-resistant PDXs have been established by our collaborators in the Curie Institute (Cottu el al, 2014) and were treated for fourteen days in the presence or absence of the gamma-secretase inhibitor RO4929097 (10 mg/kg/day, oral gavage). Xenografts were collected in ice cold DMEM media for live cell assays, histological analysis and RNA and protein extraction. Patient-derived xenograft single cell suspension was obtained using a collagenase-hyaluronidase mixture for digestion (Stem Cell Technologies).
Tissue microarrays (TMAs) were constructed from all formalin fixed and paraffin embedded tissue. 3×1 mm cores were taken per tissue block, and TMAs were cut into 3 μm thick sections and analysed by immunohistochemistry. Antibodies utilised were anti-ERα (Thermo, SP1), anti-PgR (Dako, M3569), anti-Ki67 (Dako, M7240), anti-HER2 (Vector Laboratories, VP-C380), anti-Hes1 (Abcam, ab108937) and anti-ALDH1 (BD Biosciences, 611195). Antigen retrieval was performed either using Target Retrieval Solution pH9 (Dako S2367, for ER, PR, Ki67 and ALDH1), Target Retrieval Solution pH6 (Dako S1699, for Hes1) or in 10 mM Citrate buffer (for HER2) in a […] water bath for 25 mins. All antibodies were detected using Dako EnVision Detection System Peroxidase/DAB, Rabbit/Mouse (Dako, K5007) and sections were counterstained with haematoxylin. Staining was quantified using Definiens Tissue Studio software. The percentage of positive epithelial cells was scored on 3 cores per tissue sample. For ER immunocytochemistry, approximately 50.000 cells were FACS sorted and then cytospun for 5 min at 80 G on poly-lysine coated slides. Cells were fixed with 4% paraformaldehyde (5 min), permeabilised with acetone (4 min) and methanol (2 min), and then blocked for 10 min with Peroxidase Blocking Reagent (Dako, S2001) and further 10 min with 3% goat serum before incubation with primary antibody. ER was then detected as described above for immunohistochemistry.

[2] = tested on: MCF-7, T47D and ZR-75-1 cells; test: BCSC activity (MFE, ALDH-positive cells) of pre-treated ER+ cell lines; type: cell-based, human; conditions: for ALDH-positive cells / mammosphere-forming activity: 6 days in vitro pre-treatment, 10^−6 M tamoxifen, 10^−7 M fulvestrant
Description: Single cell suspensions of freshly isolated ER+ primary and metastatic patient-derived samples were cultured for 7-9 days (primary cells) in mammosphere colony assays in the presence of ethanol, 10^−6 M 4-hydroxy-tamoxifen or 10^−7 M fulvestrant. Primary mammospheres were dissociated and replated in secondary mammosphere suspension culture for a further 7-9 days to measure self-renewal. Patient-derived xenograft cells were cultured for 7-10 days. For cell lines, cells were pre-treated in adherence and then cultured for 5 days in mammosphere culture. Mammosphere formation efficiency (MFE) was calculated by dividing the number of mammospheres formed (≧50 μm) by the original number of single cells seeded (500 cells/cm^2 for primary cells and 200 cells/cm^2 for cell lines) and is expressed as fold change normalised to control or as the mean percentage of MFE (Shaw et al., 2012).
Dissociated single cells were suspended in Aldefluor assay buffer containing an ALDH substrate, bodipyaminoacetaldehyde (BAAA) at […], and incubated for 45 min at 37° C. To distinguish between ALDH-positive and -negative cells, a fraction of cells was incubated under identical conditions in the presence of a 2-fold molar excess of the ALDH inhibitor, diethylaminobenzaldehyde (DEAB). Mouse cells were excluded from the FACS analysis with anti-mouse MHC Class I (H-2Kd) antibody conjugated with Pacific Blue (BioLegend, 116616). 7-aminoactinomycin D (7AAD, BD) was added for dead cell exclusion. Data were acquired on a LSR II (BD) flow cytometer and analysed using the BD FACSDiva™ software.
MCF7, T47D and ZR-75-1 cell lines were purchased from American Tissue Culture Collection (ATCC) and cultured in DMEM/F-12, GlutaMAX (Gibco) with 10% FBS (Gibco). Cells were treated for 3 days or 6 days with ethanol (control), 10^-6M 4-OH-tamoxifen or 10^−7M fulvestrant and/or with 10 μM of gamma-secretase inhibitor RO4929097 (Cellagen Technology) or DMSO (control).

SMILES	proliferation marker Ki67 [1]	tumor growth [1]	PR expression ([1]; HBC×34 (early BC) PDX)	ALDH-positive cells [2]	mammosphere-forming activity [2]	ER and PR protein expression levels [1]	BCSC activity as assayed by MFE and ALDH-positive cells ([2]; 3 days tamoxifen or fulvestrant concomitantly with RO4929097 10 μM)
CC/C(=C(\c1ccccc1)c1ccc(OCCN(C)C)cc1)c1ccccc1 [tamoxifen, (Z)-2-[4-(1,2-diphenylbut-1-enyl)phenoxy]-N,N-dimethylethanamine]	decrease; also recorded: reduced	reduced	down-regulated	enriched	enriched		
C[C@]12CC[C@@H]3c4ccc(O)cc4C[C@@H](CCCCCCCCC[S+]([O-])CCCC(F)(F)C(F)(F)F)[C@H]3[C@@H]1CC[C@@H]2O (some centres unmarked) [fulvestrant]	decrease; also recorded: reduced	reduced		enriched	enriched	reduced	
CC(C)(C(=O)NCC(F)(F)C(F)(F)F)C(=O)N[C@@H]1C(=O)Nc2ccccc2-c2ccccc21 [RO4929097]	no impact	no impact				not modified	reduced
